The test system of data set [1] is KB. In words: Cytotoxicity against human KB cells. It is filed as functional. The following applies: read-out: ED50 (the source's name).
Data set [2] in a line: Selectivity index, ratio of cytotoxic effect against human MRC5 cells to cytotoxic effect against human Jurkat cells. It is filed as toxicity, cell-based. The following applies: MRC5 cells versus Jurkat cells, read-out: Selectivity Index.
A short description of data set [3]: Selectivity index, ratio of cytotoxic effect against human MRC5 cells to cytotoxic effect against human MOLT-4 cells.
Data set [4] in a line: Selectivity index, ratio of cytotoxic effect against human MRC5 cells to cytotoxic effect against human A549 cells. In kind it is toxicity, cell-based. To be noted: MRC5 cells versus A549 cells, read-out: Selectivity Index.
Data set [5] can be described thus: Selectivity index, ratio of cytotoxic effect against human MRC5 cells to cytotoxic effect against human HT-29 cells. To be noted: MRC5 cells versus HT-29 cells, read-out: Selectivity Index. In kind it is toxicity, cell-based.
Data set [6] can be described thus: Selectivity index, ratio of cytotoxic effect against human MRC5 cells to cytotoxic effect against human PANC-1 cells.
A short description of data set [7]: Selectivity index, ratio of cytotoxic effect against human MRC5 cells to cytotoxic effect against human A2780 cells. It is filed as toxicity, cell-based. To be noted: MRC5 cells versus A2780 cells, read-out: Selectivity Index.
A short description of data set [8]: Selectivity index, ratio of cytotoxic effect against human MRC5 cells to cytotoxic effect against human HeLa cells. It is filed as toxicity, cell-based. To be noted: MRC5 cells versus HeLa cells, read-out: Selectivity Index.
Data set [9] is described as follows: Selectivity index, ratio of cytotoxic effect against human MRC5 cells to cytotoxic effect against human MCF7 cells. In kind it is toxicity, cell-based. To be noted: MRC5 cells versus MCF7 cells, read-out: Selectivity Index.
Data set [10] can be described thus: Selectivity index, ratio of cytotoxic effect against human MRC5 cells to cytotoxic effect against human SAOS-2 cells.
Data set [11] addresses Acetylcholinesterase (Homo sapiens, UniProt P22303). In words: Inhibition of human AChE by Ellman's method.
The target in data set [12] is Cholinesterase (Homo sapiens, UniProt P06276). Put plainly: Inhibition of human BChE by Ellman's method.
Sequence of Cholinesterase (P06276 whole entry): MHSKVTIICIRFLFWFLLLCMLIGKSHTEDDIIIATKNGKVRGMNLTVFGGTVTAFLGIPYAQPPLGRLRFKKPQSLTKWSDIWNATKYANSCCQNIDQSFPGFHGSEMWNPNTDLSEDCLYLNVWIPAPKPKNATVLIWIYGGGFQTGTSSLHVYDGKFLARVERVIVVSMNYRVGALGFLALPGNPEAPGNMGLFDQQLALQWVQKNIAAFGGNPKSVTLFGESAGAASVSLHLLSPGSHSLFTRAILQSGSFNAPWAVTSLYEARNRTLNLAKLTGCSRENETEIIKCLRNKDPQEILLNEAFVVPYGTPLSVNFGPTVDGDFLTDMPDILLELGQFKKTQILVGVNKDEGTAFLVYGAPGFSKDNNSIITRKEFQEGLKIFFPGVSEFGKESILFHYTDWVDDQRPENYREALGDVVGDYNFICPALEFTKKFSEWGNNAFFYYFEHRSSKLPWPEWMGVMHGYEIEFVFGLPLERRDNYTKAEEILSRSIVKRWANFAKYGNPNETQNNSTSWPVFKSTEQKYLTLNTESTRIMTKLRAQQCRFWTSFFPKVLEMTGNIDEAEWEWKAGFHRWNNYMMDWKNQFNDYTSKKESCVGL
Data set [13] concerns A549. In words: Cytotoxicity against human A549 cells measured after 72 hrs by MTT assay. In kind it is functional, cell-based. To be noted: A549, 72 h.

Structures are written as SMILES. Values after ≈ are worked out from the molar mass of the structure shown.

Here are results for six molecules from ChEMBL document CHEMBL5584360, “Undescribed Amaryllidaceae Alkaloids from Zephyranthes citrina and Their Cytotoxicity” (J Nat Prod, 2024).

Sequence of Acetylcholinesterase (P22303 whole entry): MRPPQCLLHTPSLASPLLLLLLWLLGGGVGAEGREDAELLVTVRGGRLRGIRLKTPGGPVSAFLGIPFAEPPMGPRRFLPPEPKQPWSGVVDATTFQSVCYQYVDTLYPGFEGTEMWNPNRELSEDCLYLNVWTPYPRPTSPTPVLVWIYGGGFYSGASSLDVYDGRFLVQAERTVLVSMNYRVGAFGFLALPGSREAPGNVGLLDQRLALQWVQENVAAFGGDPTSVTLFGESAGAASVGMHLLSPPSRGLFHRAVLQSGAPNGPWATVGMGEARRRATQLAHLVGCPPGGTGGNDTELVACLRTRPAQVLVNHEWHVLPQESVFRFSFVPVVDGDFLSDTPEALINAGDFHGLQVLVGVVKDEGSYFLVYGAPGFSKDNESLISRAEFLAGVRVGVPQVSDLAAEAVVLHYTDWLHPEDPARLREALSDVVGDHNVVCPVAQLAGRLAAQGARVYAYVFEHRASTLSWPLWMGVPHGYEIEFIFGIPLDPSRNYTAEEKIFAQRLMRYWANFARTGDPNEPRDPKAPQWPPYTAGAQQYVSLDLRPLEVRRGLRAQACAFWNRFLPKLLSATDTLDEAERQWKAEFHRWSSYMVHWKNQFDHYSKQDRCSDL

On to `COc1cc2c(cc1OC)[C@@]13C=CC(O)C[C@@H]1N(CC3)C2` (stereo partly specified), for which, in data set [1], the EC50 came out at 0.51 µg/mL (≈ 1.77 µM).
As for `CO[C@@H]1C=C[C@@]23c4cc5c(cc4[C@H](O)N(C[C@@H]2O)[C@H]3C1)OCO5`, the selectivity ratio in data set [2], in data set [4], in [5], in data set [7], in [8] and in [9] was 0.14 throughout. The “Selectivity Index” value in [3], in data set [6] and in [10] was 0.14 throughout.
For `COc1cc(-c2cccc3c2N(C)CC3)c(CN2CC[C@@]34C=C[C@H](O)C[C@@H]3Oc3c(OC)ccc(c34)C2)c(OC)c1OC`, the IC50 stood at 18.7 µM in [11] and 1.34 µM in data set [12].
In the case of `CO[C@@H]1C=C[C@@]23c4cc5c(cc4CN(C[C@@H]2O)[C@H]3C1)OCO5` [(+)-HAEMANTHAMINE], the selectivity ratio in data set [2], in [4], in data set [5], in data set [7], in data set [8] and in [9] was 0.05 throughout. Also, the “Selectivity Index” value in [3], in data set [6] and in data set [10] was 0.05 in each case.
In [13], `CO[C@H]1C=C[C@@]23c4cc5c(cc4CN(C[C@@H]2O)[C@H]3C1)OCO5` had an IC50 of 15.9 µg/mL (≈ 52.8 µM).
Consider `O[C@H]1[C@H]2c3cc4c(cc3CN3CCC(=C[C@@H]1O)[C@H]23)OCO4` [LYCORINE], for which the selectivity ratio in data set [2], in data set [4], in data set [5], in data set [7], in [8] and in data set [9] was 0.62 each time. Further, the “Selectivity Index” value in data set [3], in data set [6] and in data set [10] was 0.62 in each case.
